MIC data for 39 molecules are collected here from patent US20230002372A1, “AZAINDOLE CARBOXAMIDE COMPOUNDS FOR THE TREATMENT OF MYCOBACTERIAL INFECTIONS” (THE GLOBAL ALLIANCE FOR TB DRUG DEVELOPMENT, INC., priority 2019, published 2023).

≈ marks a conversion by molar mass, not a printed value.

The test concerns M tb H37Rv. The experiment in a line: MIC determination against M tb H37Rv (green fluorescent protein reporter assay; MIC-MABA). The format is cell-based, Mycobacterium tuberculosis. The note with it: Mycobacterium tuberculosis, H37RV, 240 h, read-out: M. TB H37Rv: MIC-MABA: MIC, M. tb H37Rv; 7H9 broth; 10 days exposure; MIC = lowest concentration inhibiting fluorescence by 90%. On the technique in general: A reporter such as luciferase makes a cellular process visible.

A word on the MIC: it is the lowest concentration found to suppress growth. With `Cc1c(C(F)(F)F)ncc2[nH]c(C(=O)NC3CC[Si](C)(C)CC3)cc12` [MPL-376, N-(1,1-dimethylsilinan-4-yl)-4-methyl-5-(trifluoromethyl)-1H-pyrrolo[2,3-c]pyridine-2-carboxamide], the MIC is 0.188 µg/mL (≈ 0.509 µM).
Then `COc1ccnc2[nH]c(C(=O)N[C@H]3C[C@H]4C[C@@H]([C@@H]3C)C4(C)C)cc12` [MPL-014, 4-methoxy-N-[(1S,2S,3S,5R)-2,6,6-trimethylnorpinan-3-yl]-1H-pyrrolo[2,3-b]pyridine-2-carboxamide], with 5.4 µg/mL (≈ 16.5 µM); and `Cc1c(C(F)(F)F)ncc2[nH]c(C(=O)NC3CCC[Si](C)(C)CC3)cc12` (stereo not drawn) [MPL-451, N-(1,1-dimethylsilepan-4-yl)-4-methyl-5-(trifluoromethyl)-1H-pyrrolo[2,3-c]pyridine-2-carboxamide], with 0.99 µg/mL (≈ 2.58 µM); and `Cc1ncc2[nH]c(C(=O)N[C@H]3C[C@H]4C[C@@H]([C@@H]3C)C4(C)C)cc2c1F` [MPL-140, 4-fluoro-5-methyl-N-[(1S,2S,3S,5R)-2,6,6-trimethylnorpinan-3-yl]-1H-pyrrolo[2,3-c]pyridine-2-carboxamide], with 1.3 µg/mL (≈ 3.95 µM).
Consider `Cc1ccnc2[nH]c(C(=O)NC3CCCCCCC3)cc12` [MPL-031, N-cyclooctyl-4-methyl-1H-pyrrolo[2,3-b]pyridine-2-carboxamide], for which the minimal inhibitory concentration (MIC) is 0.25 µg/mL (≈ 0.876 µM).
Regarding `CC1(C)[C@H]2C[C@H](NC(=O)c3cc4c(Cl)cncc4[nH]3)[C@](C)(O)[C@@H]1C2` [MPL-222, 4-chloro-N-[(1R,2R, 3S, 5R)-2-hydroxy-2,6,6-trimethyl-norpinan-3-yl]-1H-Pyrrolo[2,3-c]pyridine-2-carboxamide], the MIC is 0.19 µg/mL (≈ 0.546 µM).
With `CC1(C)CCC(NC(=O)c2cc3c(C4CC4)ccnc3[nH]2)CC1` [MPL-017, 4-cyclopropyl-N-(4,4-dimethylcyclohexyl)-1H-pyrrolo[2,3-b]pyridine-2-carboxamide] the figure was 0.72 µg/mL (≈ 2.31 µM); with `Cc1nc2[nH]c(C(=O)NC3CCC(C)(C)CC3)cc2c(F)c1Cl` [MPL-069, 5-chloro-N-(4,4-dimethylcyclohexyl)-4-fluoro-6-methyl-1H-pyrrolo[2,3-b]pyridine-2-carboxamide], 0.0099 µg/mL (≈ 0.0293 µM); with `CC1(C)[C@H]2C[C@H](NC(=O)c3cc4c(C(F)(F)F)ccnc4[nH]3)[C@](C)(O)[C@@H]1C2` [MPL-216, N-[(1R,2R,3S,5R)-2-hydroxy-2,6,6-trimethyl-norpinan-3-yl]-4-(trifluoromethyl)-1H-pyrrolo[2,3-b]pyridine-2-carboxamide], 0.041 µg/mL (≈ 0.107 µM).
Consider `O=C(NC1CCCCCCC1)c1cc2c(C(F)(F)F)ccnc2[nH]1` [MPL-037, N-cyclooctyl-4-(trifluoromethyl)-1H-pyrrolo[2,3-b]pyridine-2-carboxamide], for which the minimum inhibitory concentration (MIC) was found to be 0.014 µg/mL (≈ 0.0413 µM).
Then `O=C(NC12CCC(CC1)CC2)c1cc2c(Cl)cncc2[nH]1` [MPL-170, N-(4-bicyclo[2.2.2]octanyl)-4-chloro-1H-pyrrolo[2,3-c]pyridine-2-carboxamide], with 0.1 µg/mL (≈ 0.329 µM).
Regarding `Cc1nc2[nH]c(C(=O)N[C@H]3C[C@H]4C[C@H](C4(C)C)[C@@]3(C)O)cc2c(F)c1F` [MPL-294, 4,5-difluoro-N-[(1R,2R,3S,5R)-2-hydroxy-2,6,6-trimethyl-norpinan-3-yl]-6-methyl-1H-pyrrolo[2,3-b]pyridine-2-carboxamide], the MIC was > 1 µg/mL.
Then `O=C(NC1CCCCCCC1)c1cc2c(Cl)ccnc2[nH]1` [MPL-033, 4-chloro-N-cyclooctyl-1H-pyrrolo[2,3-b]pyridine-2-carboxamide], with 0.038 µg/mL (≈ 0.124 µM); and `Cc1cc(Cl)c2cc(C(=O)NC3CCC[Si](C)(C)CCC3)[nH]c2n1` [MPL-305], with 0.015 µg/mL (≈ 0.0412 µM).
With `O=C(NC1CCCCCCC1)c1cc2cc(Cl)c(F)nc2[nH]1` [MPL-065a, 5-chloro-N-cyclooctyl-6-fluoro-1H-pyrrolo[2,3-b]pyridine-2-carboxamide] the figure was 0.013 µg/mL (≈ 0.0401 µM); with `C[C@@H]1[C@@H](NC(=O)c2cc3c(F)cncc3[nH]2)C[C@H]2C[C@@H]1C2(C)C` [MPL-092, 4-fluoro-N-[(1S,2S,3S,5R)-2,6,6-trimethylnorpinan-3-yl]-1H-pyrrolo[2,3-c]pyridine-2-carboxamide], 1.2 µg/mL (≈ 3.8 µM).
Then `COc1c(C(F)(F)F)ncc2[nH]c(C(=O)NC3CC[Si](C)(C)CC3)cc12` [MPL-379, N-(1,1-dimethylsilinan-4-yl)-4-methoxy-5-(trifluoromethyl)-1H-pyrrolo[2,3-c]pyridine-2-carboxamide], with 0.332 µg/mL (≈ 0.861 µM); and `CC1(C)[C@H]2C[C@H](NC(=O)c3cc4c(F)c(F)cnc4[nH]3)[C@](C)(O)[C@@H]1C2` [MPL-219, 4,5-difluoro-N-[(1R,2R,3S,5R)-2-hydroxy-2,6,6-trimethyl-norpinan-3-yl]-1H-pyrrolo[2,3-b]pyridine-2-carboxamide], with 0.9 µg/mL (≈ 2.58 µM).
As for `O=C(NC1CCCCCCC1)c1cc2c(Br)ccnc2[nH]1` [MPL-035, 4-bromo-N-cyclooctyl-1H-pyrrolo[2,3-b]pyridine-2-carboxamide], the MIC is 0.14 µg/mL (≈ 0.4 µM).
`C[C@@H]1[C@@H](NC(=O)c2cc3c(F)c(Cl)ncc3[nH]2)C[C@H]2C[C@@H]1C2(C)C` [MPL-138, 5-chloro-4-fluoro-N-[(1S,2S,3S,5R)-2,6,6-trimethylnorpinan-3-yl]-1H-pyrrolo[2,3-c]pyridine-2-carboxamide]: the MIC is 2.9 µg/mL (≈ 8.29 µM).
With `O=C(NC1CCCCCCC1)c1cc2c(C3CC3)ccnc2[nH]1` [MPL-039, N-cyclooctyl-4-cyclopropyl-1H-pyrrolo[2,3-b]pyridine-2-carboxamide] the figure was 0.39 µg/mL (≈ 1.25 µM); with `C[C@@H]1[C@@H](NC(=O)c2cc3c(F)c(F)cnc3[nH]2)C[C@H]2C[C@@H]1C2(C)C` [MPL-062, 4,5-difluoro-N-[(1S,2S,3S,5R)-2,6,6-trimethylnorpinan-3-yl]-1H-pyrrolo[2,3-b]pyridine-2-carboxamide], 0.19 µg/mL (≈ 0.57 µM).
`C[Si]1(C)CCC(NC(=O)c2cc3cc(C(F)(F)F)ncc3[nH]2)C1` (stereo not drawn) [MPL-402, N-(1,1-dimethylsilolan-3-yl)-5-(trifluoromethyl)-1H-pyrrolo[2,3-c]pyridine-2-carboxamide]: the MIC came to 0.962 µg/mL (≈ 2.82 µM).
Then `C[Si]1(C)CCC(NC(=O)c2cc3c(F)c(Cl)ncc3[nH]2)CC1` [MPL-345, 5-chloro-N-(1,1-dimethylsilinan-4-yl)-4-fluoro-1H-pyrrolo[2,3-c]pyridine-2-carboxamide], with 0.498 µg/mL (≈ 1.47 µM); and `CNc1ccnc2[nH]c(C(=O)N[C@H]3C[C@H]4C[C@@H]([C@@H]3C)C4(C)C)cc12` [MPL-023, 4-(methylamino)-N-[(1S,2S,3S,5R)-2,6,6-trimethylnorpinan-3-yl]-1H-pyrrolo[2,3-b]pyridine-2-carboxamide], with 11 µg/mL (≈ 33.7 µM).
Then `Cc1cc(F)c2cc(C(=O)NC3CC[Si](C)(C)CC3)[nH]c2n1` [MPL-207, N-(1,1-dimethylsilinan-4-yl)-4-fluoro-6-methyl-1H-pyrrolo[2,3-b]pyridine-2-carboxamide], with 0.0045 µg/mL (≈ 0.0141 µM); and `CC1(C)CCC(NC(=O)c2cc3c(F)c(F)cnc3[nH]2)CC1` [MPL-063, N-(4,4-dimethylcyclohexyl)-4,5-difluoro-1H-pyrrolo[2,3-b]pyridine-2-carboxamide], with 0.14 µg/mL (≈ 0.456 µM); and `Cc1ncc2[nH]c(C(=O)NC3CC[Si]4(CCCCC4)CC3)cc2c1F` [MPL-320, 4-fluoro-5-methyl-N-(6-silaspiro[5.5]undecan-3-yl)-1H-pyrrolo[2,3-c]pyridine-2-carboxamide], with 0.25 µg/mL (≈ 0.695 µM).
Then `Cc1ncc2[nH]c(C(=O)NC3CCC[Si](C)(C)CC3)c(C)c2c1F` (stereo not drawn) [MPL-353, N-(1,1-dimethylsilepan-4-yl)-4-fluoro-3,5-dimethyl-1H-pyrrolo[2,3-c]pyridine-2-carboxamide], with 0.124 µg/mL (≈ 0.357 µM); and `Cc1cc2cc(C(=O)NC3CCCCCCC3)[nH]c2nc1C` [MPL-071, N-cyclooctyl-5,6-dimethyl-1H-pyrrolo[2,3-b]pyridine-2-carboxamide], with 0.049 µg/mL (≈ 0.164 µM); and `O=C(NC1CC2CCC(C2)C1)c1cc2c(Cl)cncc2[nH]1` (stereo not drawn) [MPL-166, N-(3-bicyclo[3.2.1]octanyl)-4-chloro-1H-pyrrolo[2,3-c]pyridine-2-carboxamide], with 0.39 µg/mL (≈ 1.28 µM).
On to `Cc1nc2[nH]c(C(=O)NC3CCCCCCC3)cc2c(F)c1F` [MPL-290, N-cyclooctyl-4,5-difluoro-6-methyl-1H-pyrrolo[2,3-b]pyridine-2-carboxamide], for which the MIC is 0.005 µg/mL (≈ 0.0156 µM).
Then `COc1ccc2cc(C(=O)NC3CC[Si]4(CCCCC4)CC3)[nH]c2n1` [MPL-455, 6-methoxy-N-(6-silaspiro[5.5]undecan-3-yl)-1H-pyrrolo[2,3-b]pyridine-2-carboxamide], with 0.121 µg/mL (≈ 0.338 µM); and `CNc1ccnc2[nH]c(C(=O)NC3CCCCCCC3)cc12` [MPL-040, N-cyclooctyl-4-(methylamino)-1H-pyrrolo[2,3-b]pyridine-2-carboxamide], with 6.2 µg/mL (≈ 20.6 µM); and `Cc1ncc2[nH]c(C(=O)NC3CC[Si]4(CCCC4)CC3)cc2c1F` [MPL-319, 4-fluoro-5-methyl-N-(5-silaspiro[4.5]decan-8-yl)-1H-pyrrolo[2,3-c]pyridine-2-carboxamide], with 0.499 µg/mL (≈ 1.44 µM).
With `CC1(C)C2CCC1(C)C(NC(=O)c1cc3c(C(F)(F)F)ccnc3[nH]1)C2` (stereo not drawn) [MPL-108, 4-(trifluoromethyl)-N-(1,7,7-trimethylnorbornan-2-yl)-1H-pyrrolo[2,3-b]pyridine-2-carboxamide] the figure was 0.02 µg/mL (≈ 0.0547 µM); with `COc1ccc2cc(C(=O)NC3CCC[Si](C)(C)CC3)[nH]c2n1` (stereo not drawn) [MPL-466, N-(1,1-dimethylsilepan-4-yl)-6-methoxy-1H-pyrrolo[2,3-b]pyridine-2-carboxamide], 0.119 µg/mL (≈ 0.359 µM); with `Cc1nc2[nH]c(C(=O)N[C@H]3CCC[Si](C)(C)CC3)cc2c(F)c1Cl` (single isomer, unassigned) [MPL-316B], 0.25 µg/mL (≈ 0.679 µM).
With `C[Si]1(C)CCC(NC(=O)c2cc3cc(C(F)(F)F)ncc3[nH]2)CC1` [MPL-321, N-(1,1-dimethylsilinan-4-yl)-5-(trifluoromethyl)-1H-pyrrolo[2,3-c]pyridine-2-carboxamide] the figure was 0.519 µg/mL (≈ 1.46 µM).
